Measurements as given in patent US7598028B2, “Compositions and methods for detecting and treating prostate disorders” (The Regents of the University of Michigan, priority 2006, dated 2009).
“Also recorded” adds a separate entry of the source.

Legend:
Type in all cases: cell-based, human
EGR1 gene transcript [1] = test: Quantitative real-time PCR, EGR1 in LNCaP cells
Procedure: (§1) Quantitative Real-Time PCR. All quantitative real-time assays were conducted with an Applied Biosystems 7900HT instrument and reagents. Cells were grown to 70% confluence in […] dishes prior to RNA purification using the Trizol reagent (Invitrogen Life Technologies). Experiments utilizing U0126 were performed as above, except that cells were treated with DMSO (vehicle) or 5 uM U0126 for 2 hours, then grown in the presence or absence of CXCL12. For all experiments, one microgram of RNA was reverse transcribed by use of Superscript III reverse transcriptase (Invitrogen, Carlsbad, Calif.). The resulting cDNA was diluted 1:100. Real-time PCR was performed by use of Assays on Demand (Applied BioSystems, Foster City, Calif.) according to the manufacturer's instructions, except that Real Time Ready with Rox passive dye (QBioGene, Carlsbad, Calif.) was used in place of TaqMan Universal PCR Master Mix. […] Cycle numbers to threshold were calculated by subtracting averaged control from averaged experimental values, and Fold Gene Expression was calculated by raising […]. […]
(§2) Quantitative Real-Time PCR. All quantitative real-time assays were conducted as previously described with an Applied Biosystems 7900HT instrument and reagents (see, e.g., Begley L A, et al., J Biol. Chem. 2007 Sep. 14; 282(37):26767-74; herein incorporated by reference in its entirety). […]

ERK ½ = test: Western blot, ERK phosphorylation in N15C6 cells
Procedure: Western blot analysis Cells were lysed, proteins resolved by electrophoresis and electroblotting was carried out as described previously (Chaib H, et al., (2001) Cancer Res. 61, 2390-2394; incorporated herein by reference in its entirety). Proteins were detected using antibodies against phospho-ERK½ (Cell Signaling no. 9101), total ERK½ (Cell Signaling, no. 9102), CXCR4 (Abcam no. ab2074), CXCR7 (Abcam #Ab12870, Abcam #Ab12871, Abcam #38089), phospho-p65 (Rockland no. 100-401-264), total p65 (Rockland no. 100-4165), or beta-actin (Santa Cruz no. sc-1615), in conjunction with an ECL detection system.
Western Blot Analysis. Cells were lysed, proteins resolved by electrophoresis, and electroblotting was carried out as described previously (see, e.g.; Chaib H, et al., 2001 Cancer Res. 61, 2390-2394; incorporated herein by reference in its entirety). Proteins were detected using antibodies against phospho-ERK½ (Cell Signaling #9101), total ERK½ (Cell Signaling #9102), CXCR4 (Abcam #ab2074), Elk-1 (Cell Signaling #9182), Phospho Elk-1 (Cell Signaling #9181), or beta-actin (Santa Cruz #sc-1615), in conjunction with an ECL detection system.
Western Blot and Protein Analysis. Cells were lysed, proteins resolved by electrophoresis, and electroblotting was carried out as described previously except that 20 ug protein was electrophoresed per gel lane for N15C6 cells and 100 ug protein for LNCaP cells (see, e.g., Begley L, et al., Aging Cell. 2005 December; 4(6):291-8; Begley L A, et al., J Biol. Chem. 2007 Sep. 14; 282(37):26767-74; each herein incorporated by reference in their entireties). Proteins were detected using antibodies against phospho-ERK½ (Cell Signaling #9101), total ERK½ (Cell Signaling, #9102), phospho-p65, (Rockland #100-401-264), total p65 (Rockland #100-4165), STAT3 (9139), phospho-STAT3 (9138), beta-actin (Santa Cruz #sc-1615), or tubulin (Upstate, #DM1A) in conjunction with an ECL detection system. Secondary antibodies included goat anti-rabbit (Cell Signaling, #7074) and goat anti-mouse (Santa Cruz, #SC-2005), and both were used at a 1:5000 concentration. Immunoblots shown are representative of triplicate experiments. Densitometric quantitation of immunoblot films was accomplished by scanning the original films and converting the .tiff files to grayscale. Images were inverted, and mean band intensities were measured using ImageJ (www, followed by, .nih.gov). The mean intensity of adjacent background was also measured for each band and subtracted from band intensity.

EGR1 gene transcript [2] = test: Quantitative real-time PCR, EGR1 in N15C6 cells
Procedure: as §1, §2

Compound	effect on CXCL12-stimulated EGR1 gene transcription (EGR1 gene transcript [1]; 5 uM U0126 for 2 hours, then 50 pM CXCL12)	effect on CXCL12-stimulated ERK ½ phosphorylation (ERK ½; 0.1 uM or 1.0 uM U0126, 1 pM CXCL12)	effect on CXCL12-stimulated ERK ½ phosphorylation (ERK ½; 1 uM U0126 pre-treatment, 10 pM or 1000 pM CXCL12)	effect on CXCL12-stimulated ERK phosphorylation (ERK ½; 1.0 uM or 5.0 uM U0126, 1 pM, 10 pM or 1000 pM CXCL12)	effect on CXCL12-stimulated ERK ½ phosphorylation (ERK ½; 5 uM U0126 pre-treatment, 10 pM or 1000 pM CXCL12)	effect on CXCL12-stimulated EGR1 gene transcription (EGR1 gene transcript [2]; 5 uM U0126 for 2 hours, then 10 pM CXCL12)	EGR1 transcript versus vehicle-treated cells (EGR1 gene transcript [1]; only at the lowest CXCL5 concentration (10 pM) tested)	ERK ½ phosphorylation (ERK ½; 10 pM, 100 pM or 1 nM CXCL5)	EGR1 transcript versus vehicle-treated cells (EGR1 gene transcript [2]; 1-100 pM CXCL5)
N#CC(=C(/N)Sc1ccccc1N)/C(C#N)=C(\N)Sc1ccccc1N [U0126]	ablates	diminished	reduces	greatly diminishes	ablates	ablated; also recorded: further dampens	–	–	–
CXCL5: recombinant human CXCL5 (R&D Systems, 254-X), CXC-type chemokine	–	–	–	–	–	–	2- to 3 fold	rapidly and transiently phosphorylated	4- to 8 fold
